Laboratory results from ChEMBL document CHEMBL1133044, “Nonpeptide GPIIB/IIIA receptor antagonists. Part 21: C-6 flexibility and amide bond orientation are important factors in determining the affinity of compounds for activated or resting platelet receptors” (Bioorg Med Chem Lett, 2000).

Assays:
[1] = target: T1, Integrin alpha-IIb/beta-3 (Homo sapiens, UniProt P05106+P08514); assay: Competition with [1251]L-692,884 for binding to purified alpha IIb/beta3 integrin, activated by coating onto yttrium silicate scintillation proximity assay fluomicrospheres.; type: protein-complex assay
Target sequence in this assay (P05106 27-788 limits assumed): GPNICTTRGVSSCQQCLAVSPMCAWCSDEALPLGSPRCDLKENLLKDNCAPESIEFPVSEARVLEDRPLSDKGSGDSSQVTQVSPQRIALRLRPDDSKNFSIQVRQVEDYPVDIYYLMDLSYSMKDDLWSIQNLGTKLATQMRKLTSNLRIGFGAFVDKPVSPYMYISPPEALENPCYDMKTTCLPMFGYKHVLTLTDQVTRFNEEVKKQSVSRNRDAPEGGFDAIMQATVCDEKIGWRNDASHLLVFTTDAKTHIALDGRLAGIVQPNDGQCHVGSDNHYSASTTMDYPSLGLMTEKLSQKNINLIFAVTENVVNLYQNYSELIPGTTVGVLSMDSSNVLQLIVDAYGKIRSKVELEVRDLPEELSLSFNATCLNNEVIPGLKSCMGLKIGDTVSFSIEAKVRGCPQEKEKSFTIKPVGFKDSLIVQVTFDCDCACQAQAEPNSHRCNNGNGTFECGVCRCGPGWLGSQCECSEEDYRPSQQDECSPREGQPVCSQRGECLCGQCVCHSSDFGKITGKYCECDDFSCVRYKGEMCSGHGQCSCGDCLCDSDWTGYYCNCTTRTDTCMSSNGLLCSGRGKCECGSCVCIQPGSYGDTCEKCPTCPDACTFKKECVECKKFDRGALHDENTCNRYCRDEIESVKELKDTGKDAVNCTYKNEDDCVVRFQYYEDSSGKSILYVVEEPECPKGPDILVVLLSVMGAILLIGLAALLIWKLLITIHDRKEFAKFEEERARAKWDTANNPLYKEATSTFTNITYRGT
Target sequence in this assay (P08514 32-887 limits assumed): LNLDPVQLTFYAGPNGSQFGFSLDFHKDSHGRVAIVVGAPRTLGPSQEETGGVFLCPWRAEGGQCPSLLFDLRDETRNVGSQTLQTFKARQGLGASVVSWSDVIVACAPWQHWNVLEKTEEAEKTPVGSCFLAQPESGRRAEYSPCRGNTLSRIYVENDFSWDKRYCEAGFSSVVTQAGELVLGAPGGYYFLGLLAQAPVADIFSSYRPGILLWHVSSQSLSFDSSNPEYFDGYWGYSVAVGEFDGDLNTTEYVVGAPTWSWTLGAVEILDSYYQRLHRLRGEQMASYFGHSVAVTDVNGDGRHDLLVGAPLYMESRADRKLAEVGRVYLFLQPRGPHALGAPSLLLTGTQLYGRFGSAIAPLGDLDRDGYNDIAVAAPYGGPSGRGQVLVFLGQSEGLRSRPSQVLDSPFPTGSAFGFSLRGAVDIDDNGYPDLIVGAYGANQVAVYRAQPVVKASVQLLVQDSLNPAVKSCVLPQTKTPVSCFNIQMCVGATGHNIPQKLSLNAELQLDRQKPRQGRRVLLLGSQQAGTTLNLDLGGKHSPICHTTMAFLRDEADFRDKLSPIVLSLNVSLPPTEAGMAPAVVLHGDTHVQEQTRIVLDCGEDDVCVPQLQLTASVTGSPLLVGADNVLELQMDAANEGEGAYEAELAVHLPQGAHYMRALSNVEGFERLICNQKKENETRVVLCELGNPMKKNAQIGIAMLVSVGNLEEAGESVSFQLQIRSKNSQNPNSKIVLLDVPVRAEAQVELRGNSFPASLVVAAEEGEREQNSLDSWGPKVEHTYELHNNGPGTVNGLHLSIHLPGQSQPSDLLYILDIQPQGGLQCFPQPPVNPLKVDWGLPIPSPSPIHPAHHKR
Target sequence in this assay (P08514 891-1039 limits assumed): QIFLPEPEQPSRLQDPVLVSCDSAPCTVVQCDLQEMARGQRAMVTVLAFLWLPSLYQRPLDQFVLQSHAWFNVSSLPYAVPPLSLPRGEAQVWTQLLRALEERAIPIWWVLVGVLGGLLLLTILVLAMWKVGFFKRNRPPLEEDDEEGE

[2] = target: T1, Integrin alpha-IIb/beta-3; assay: Binding affinity to resting form of alpha IIb/beta3 integrin by flow cytometry using fluorescein ligand L-726,745 displacement from human platelets.
Target sequence in this assay (P05106 27-788 limits assumed): as the sequence (P05106 27-788 limits assumed) above
Target sequence in this assay (P08514 32-887 limits assumed): as the sequence (P08514 32-887 limits assumed) above
Target sequence in this assay (P08514 891-1039 limits assumed): as the sequence (P08514 891-1039 limits assumed) above

[3] = target: T1, Integrin alpha-IIb/beta-3; assay: Selectivity as determined by the ratio of KDs, resting receptor over activated receptor; type: protein-complex assay
[4] = Inhibition of aggregation of human gel-filtered platelets measured by light transmittance method at 37 degrees C.

SMILES | Kd [1] [nM] | Kd [2] [nM] | Selectivity [3] | IC50 [4] [nM]
C[C@@H](/C=C/CN1CCC[C@@H](CCC2CCNCC2)C1=O)CC(=O)O | 12 | 2300 | 192 | –
O=C(NC[C@H](NS(=O)(=O)c1ccccc1)C(=O)O)c1ccc(OCCC2CCNCC2)cc1 | 0.16 | 2.4 | 15 | –
O=C(O)C[C@@H](CO)NC(=O)CN1CCc2ccc(N3CCNCC3)cc2C1=O | 15 | > 1000 | > 67 | –
CC(CC(=O)O)NC(=O)c1ccc2c(c1)C(=O)N(CCC1CCNCC1)C2 (stereo unspecified) | 64 | 49 | 0.8 | –
C#CC(CC(=O)O)NC(=O)CN(C(=O)c1cccc(C2CCNCC2)c1)C1CC1 (stereo unspecified) | 0.85 | 120 | 141 | –
O=C(O)CCNC(=O)c1cc2n(n1)CCCN(CCC1CCNCC1)C2=O | 46 | – | 14 | 470
Cc1ccc(S(=O)(=O)N[C@@H](CNC(=O)c2cc3n(n2)CCCN(CCC2CCNCC2)C3=O)C(=O)O)cc1 | 0.08 | – | 18 | –
C#C[C@H](CC(=O)O)NC(=O)c1ccc2c(c1)C(=O)N(CCc1ccnc(N)c1)C2 | 2.2 | 84 | 38 | –
O=C(O)C[C@@H](CO)NC(=O)c1ccc2c(c1)C(=O)N(CCC1CCNCC1)C2 | 21 | 47 | 2 | –
O=C(CN1CCc2ccc(N3CCNCC3)cc2C1=O)NC[C@H](NS(=O)(=O)c1ccccc1)C(=O)O | 6.7 | 13 | 1.9 | –
O=C(O)CCNC(=O)c1ccc2c(c1)C(=O)N(CCC1CCNCC1)C2 | 13 | 120 | 9 | 27
C#C[C@H](CC(=O)O)NC(=O)C[C@H]1CCCN(CCC2CCNCC2)C1=O | 0.34 | 6.1 | 18 | –
C[C@H](CC(=O)O)NC(=O)CN1CCC[C@@H](CCC2CCNCC2)C1=O | – | 640 | 140 | –
O=C(O)CCNC(=O)CN1CCc2ccc(N3CCNCC3)cc2C1=O | 9.7 | – | – | –
C#C[C@H](CC(=O)O)NC(=O)CN1CCc2ccc(N3CCNCC3)cc2C1=O | 0.56 | 50 | 89 | –
C#CC(CCCN1CCC[C@@H](CCC2CCNCC2)C1=O)CC(=O)O (stereo partly specified) | 9 | 3100 | 344 | –
C#C[C@H](CC(=O)O)NC(=O)CN1CCC[C@@H](CCc2ccnc(N)c2)C1=O | 0.78 | 340 | 435 | –
O=C(O)C[C@H](NC(=O)C[C@H]1CCCN(CCC2CCNCC2)C1=O)c1cccnc1 | 0.3 | 11 | 37 | –
O=C(NC[C@H](NS(=O)(=O)c1ccccc1)C(=O)O)c1cc2cc(OCCC3CCNCC3)ccc2[nH]1 | 0.056 | 1.3 | 24 | –
O=C(O)C[C@H](NC(=O)CN1CCc2ccc(N3CCNCC3)cc2C1=O)c1cccnc1 | 0.25 | 3.4 | 14 | –
O=C(O)C[C@H](NC(=O)CN1CCC[C@@H](CCC2CCNCC2)C1=O)c1cccnc1 | 0.38 | 84 | 221 | –
O=C(NC[C@H](NS(=O)(=O)c1ccccc1)C(=O)O)c1cc2cc(CCC3CCNCC3)sc2s1 | 0.09 | 2.1 | 23 | 8
C#C[C@H](CC(=O)O)NC(=O)CN1CCC[C@@H](CCC2CCNCC2)C1=O | 0.86 | 210 | 244 | –
C#C[C@H](CC(=O)O)NC(=O)C[C@H]1CCCN(CCc2ccnc(N)c2)C1=O | 0.26 | 60 | 230 | –
O=C(NC[C@H](NS(=O)(=O)c1ccccc1)C(=O)O)c1ccc2c(c1)C(=O)N(CCC1CCNCC1)C2 | 0.25 | 3.1 | 12 | –
O=C(CN1CCC[C@@H](CCC2CCNCC2)C1=O)NC[C@H](NS(=O)(=O)c1ccccc1)C(=O)O | 0.78 | 15 | 19 | –
